One molecule from patent US8324254B2, “Oxadiazole substituted indazole derivatives for use as sphingosine 1-phosphate (S1P) agonists” (Glaxo Group Limited, priority 2007, dated 2012) can be followed below.

This test deals with T1, S1P1 receptor (Homo sapiens, UniProt P21453).
T1 construct: expressed in transfected cells; membranes
The experiment in a line: S1P1 GTPγS binding assay. It counts as biochemical. Conditions: membranes of Rat Basophilic Leukaemia cells (RBL) stably expressing S1P1 receptor, 35S-GTPγS. Here is the method:
Rat Basophilic Leukaemia cells (RBL) stably expressing S1P1 receptor were grown to 80% confluency before being harvested into 10 ml Phospho-Buffered Saline (PBS) and centrifuged at 1200 rpm for 5 minutes. After removal of the supernatant, the pellet was re-suspended and homogenised in 20 volumes assay buffer (20 mM HEPES pH 7.4, 100 mM NaCl, 10 mM MgCl2.6H2O, 10 μM GDP Saponin 10 μg/ml). The membrane suspension was further centrifuged for 20 minutes at 20,000 rpm re-homogenised and spun again. Following the second centrifugation the pellet was resuspended in an appropriate volume (1 ml for each flask of cells) and assayed for protein concentration.
Concentrated stock of S1P was sonicated before serial dilutions were prepared from a starting concentration of 10^−5 M. Diluted membranes (10 μg/well) were incubated with various concentrations of S1P and 0.3 nM ^35S-GTPγS (NEN; specific activity 1250 Ci/mmol) in 96 deep well plates. Binding was performed at 30° C. for 45 minutes and terminated by harvesting the membranes onto GF/B filter plates using a Packard Universal Harvester. After drying the plates for 45 minutes, 50 μl of Microscint 0 was added to each well and binding measured on a Topcount NXT (Perkin Elmer). Data was analysed using Graphpad Prism 4 and expressed as percentage stimulation above basal. […]

T1 sequence (P21453 whole entry): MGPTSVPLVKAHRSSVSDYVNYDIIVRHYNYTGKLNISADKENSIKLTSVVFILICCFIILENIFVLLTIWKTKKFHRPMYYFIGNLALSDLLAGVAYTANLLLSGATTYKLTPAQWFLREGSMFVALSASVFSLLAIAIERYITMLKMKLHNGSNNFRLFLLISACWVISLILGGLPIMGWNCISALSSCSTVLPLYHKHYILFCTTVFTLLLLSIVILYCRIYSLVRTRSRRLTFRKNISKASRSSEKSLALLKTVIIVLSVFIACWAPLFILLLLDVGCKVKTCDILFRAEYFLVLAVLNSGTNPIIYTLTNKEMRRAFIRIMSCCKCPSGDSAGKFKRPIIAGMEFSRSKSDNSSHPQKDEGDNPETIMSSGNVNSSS

On to `CC(C)Oc1ccc(-c2nc(-c3ccc4c(cnn4CCC(=O)O)c3)no2)cc1Cl` [Example 1, 3-[5-(5-{3-Chloro-4-[(1-methylethyl)oxy]phenyl}-1,2,4-oxadiazol-3-yl)-1H-indazol-1-yl]propanoic acid], for which the EC50 was below 1 µM.
